This note sets out measurements from US20090004185A1, “AMINO-SUBSTITUTED QUINAZOLINE DERIVATIVES AS INHIBITORS OF BETA-CATENIN/TCF-4 PATHWAY AND CANCER TREATMENT AGENTS” (WYETH, priority 2007, published 2009).

For one assay, the system named is β-catenin/Tcf-4. Briefly: cells. Format: cell-based. Conditions: Homo sapiens, SW480, 24 h, Tcf 33.13 cells derived from SW480; 24 hours of incubation with compound; ratio Firefly/Renilla luciferase. The source says: Background cell line: SW480 colorectal carcinoma DNA constructs:
1) Tcf-4-Luc: Tcf-4 binding sites driving Firefly Luciferase in the pGL3 vector—to measure the activity of β-catenin/Tcf-4;
(§1) 2) SV40-Luc: SV40 binding site driving Firefly Luciferase in the pGL3 vector—as a control for non-specific inhibitors; and
(§2) 3) SV40-R-Luc: SV40 binding site driving Renilla Luciferase in the pGL3 vector—as an internal control for cell number and toxicity.
This screen uses 3 cell lines derived from SW480 and selected to contain the above luciferase reporters integrated into their chromosomes as follows: […]
(§3) Cells: Tcf22C11 and SV5A8 were grown in the presence of 500 μg/ml G418 and Tcf 33.13 was grown in the presence of 500 μg/ml G418+125 μg/ml Zeocin to maintain the integrated reporters. The cells were trypsinized and plated at 1×10^4 cells/well in opaque 96 well plates.
The compounds were diluted as follows: The compounds were stored frozen in dimethyl sulfoxide (DMSO) at […]. Compounds were initially titrated in DMSO to make a 1000×DMSO stock solution. Compounds were then diluted 1:25 into media/DMSO (DMEM+10% FBS+9% DMSO). Using the Biomek Multimek, the diluted compounds were mixed well and immediately added to the plated cells in a 1:40 dilution. The final concentration of DMSO in the assay plates was 0.316% DMSO.
(§4) Assay Readout: The luciferase signal was detected using a luciferase detection kit from Promega. Until December 2003, Promega's Dual-Luciferase® Reporter (DLR™) Assay System was used to detect luciferase activity. Briefly, after 24 hours of incubation with compound, culture media was removed by aspiration and 20 ul of passive lysis buffer (Promega) per well was added. The plates were shaken for 15 min. Firefly substrate was then added and the resulting luminescence was immediately read on a CCD camera imaging device or a luminometer. After quantifying the firefly luminescence, the reaction was quenched, and the Renilla luciferase reaction was initiated simultaneously by adding Stop & Glo® Reagent to the same sample. Renilla luciferase was then quantified using the CCD camera or luminometer.
Promega's Dual-Glo™ Luciferase Assay System can be used for luciferase detection. […] Briefly, after 24 hours of incubation with compound, culture media was removed by aspiration and 75 ul of fresh medium was added. Add 75 ul of Dual-Glo Luciferase Reagent (Promega) to each well and mix by shaking for 10 minutes on a plate shaker. Then, measure the firefly luminescence on a CCD camera imaging device or a luminometer. After quantifying the firefly luminescence, add 75 ul of Dual-Glo Stop & Glo Reagent (Promega) to each well and mix for 10 minutes. Renilla luciferase was then quantified using the CCD camera or luminometer.
(§5) This assay was meant to confirm primary leads and determine IC50s. Compounds were tested at titrated dilutions. The raw data for this assay was reported in protocol 2463-B. Protocol 2463-C contains the IC50 calculations based on the raw data. The data calculations were done as follows:
(§6) The data was expressed as % of control for both Firefly and Renilla Luciferase. The ratio of FF/Renilla (F/R) was then calculated and averaged between duplicate plates. The data was then plotted using LSW Data Analysis in Microsoft Excel. IC50s were determined by plotting the data in the LSW Data Analysis program using model 33. The IC50s (nM) for all three cell lines were reported.
Usually IC50 stands for the point on the concentration scale where inhibition reaches its midpoint. With `CNc1nc(NCc2ccc(NC(=O)c3cc(F)ccc3C)cc2)c2ccccc2n1` [Example 1, 5-fluoro-2-methyl-N-[4-({[2-(methylamino)quinazolin-4-yl]amino}methyl)phenyl]benzamide], the half-maximal inhibitory concentration (IC50) was > 6020 nM. Consider `CNc1nc(NCc2ccc(NC(=O)COCc3ccccc3)cc2)c2ccccc2n1` [Example 2, 2-(benzyloxy)-N-[4-({[2-(methylamino)quinazolin-4-yl]amino}methyl)phenyl]acetamide], for which the IC50 was > 2920 nM.

The same assay, now with this note: Homo sapiens, Tcf22C11, 24 h, Tcf 22C11 cells derived from SW480; 24 hours of incubation with compound; ratio Firefly/Renilla luciferase.
On to `CNc1nc(NCc2ccc(NC(=O)c3cc(F)ccc3C)cc2)c2ccccc2n1` [Example 1, 5-fluoro-2-methyl-N-[4-({[2-(methylamino)quinazolin-4-yl]amino}methyl)phenyl]benzamide], for which the IC50 was > 6020 nM. On the same count and under the same terms, the result for `CNc1nc(NCc2ccc(NC(=O)COCc3ccccc3)cc2)c2ccccc2n1` [Example 2, 2-(benzyloxy)-N-[4-({[2-(methylamino)quinazolin-4-yl]amino}methyl)phenyl]acetamide] reads > 2920 nM.

Another assay concerns SV40-Luc. Briefly: SV40-Luc control luciferase reporter assay, SV 5A8 cell line (SV40-Luc and SV40-R-Luc), control for non-specific inhibitors. Format: cell-based, human. Particulars: Homo sapiens, SV5A8, 24 h, SV 5A8 cells derived from SW480; 24 hours of incubation with compound; ratio Firefly/Renilla luciferase.
Source text: Background cell line: SW480 colorectal carcinoma DNA constructs: […]
as §1, §2
This screen uses 3 cell lines derived from SW480 and selected to contain the above luciferase reporters integrated into their chromosomes as follows:
SV 5A8—SV40-Luc and SV40-R-Luc
as §3
Compounds: 20-24 hours after cell plating, compounds were added at titrated concentrations between […]. The compounds were diluted as follows: The compounds were stored frozen in dimethyl sulfoxide (DMSO) at […]. Compounds were initially titrated in DMSO to make a 1000×DMSO stock solution. Compounds were then diluted 1:25 into media/DMSO (DMEM+10% FBS+9% DMSO). Using the Biomek Multimek, the diluted compounds were mixed well and immediately added to the plated cells in a 1:40 dilution. The final concentration of DMSO in the assay plates was 0.316% DMSO.
as §4
Promega's Dual-Glo™ Luciferase Assay System can be used for luciferase detection. It was similar to the DLR Assay, however, unlike the DLR which has to be read immediately due to decaying signal, the signal in the Dual-Glo™ Luciferase Assay was stable for up to 2 hours. Briefly, after 24 hours of incubation with compound, culture media was removed by aspiration and 75 ul of fresh medium was added. Add 75 ul of Dual-Glo Luciferase Reagent (Promega) to each well and mix by shaking for 10 minutes on a plate shaker. Then, measure the firefly luminescence on a CCD camera imaging device or a luminometer. After quantifying the firefly luminescence, add 75 ul of Dual-Glo Stop & Glo Reagent (Promega) to each well and mix for 10 minutes. Renilla luciferase was then quantified using the CCD camera or luminometer.
as §5, §6
Take `CNc1nc(NCc2ccc(NC(=O)c3ccc(Cl)nc3)cc2)c2ccccc2n1` [Example 3, 6-chloro-N-[4-({[2-(methylamino)quinazolin-4-yl]amino}methyl)phenyl]nicotinamide]: the IC50 was > 2980 nM. The same measure, in the same setting: the result for `CNc1nc(NCc2ccc(NC(=O)c3ccnc(Cl)c3)cc2)c2ccccc2n1` [Example 4, 2-chloro-N-[4-({[2-(methylamino)quinazolin-4-yl]amino}methyl)phenyl]isonicotinamide] reads > 2980 nM; that for `CNc1nc(NCc2ccc(NC(=O)c3ccc(Cl)cc3)cc2)c2ccccc2n1` [Example 10, 4-chloro-N-[4-({[2-(methylamino)quinazolin-4-yl]amino}methyl)phenyl]benzamide], 2190 nM; that for `CNc1nc(NCc2ccc(NC(=O)c3cccc(Cl)c3)cc2)c2ccccc2n1` [Example 11, 3-chloro-N-[4-({[2-(methylamino)quinazolin-4-yl]amino}methyl)phenyl]benzamide], > 5980 nM.

As to `CNc1nc(NCc2ccc(NC(=O)c3ccc(C)cc3)cc2)c2ccccc2n1` [Example 12, 4-methyl-N-[4-({[2-(methylamino)quinazolin-4-yl]amino}methyl)phenyl]benzamide], the IC50 is > 25200 nM. On to `CNc1nc(NCc2ccc(NC(=O)c3ccc(F)cc3)cc2)c2ccccc2n1` [Example 13, 4-fluoro-N-[4-({[2-(methylamino)quinazolin-4-yl]amino}methyl)phenyl]benzamide], for which the IC50 is > 778 nM. Regarding `CNc1nc(NCc2ccc(NC(=O)c3ccc(-c4ccccc4)cc3)cc2)c2ccccc2n1` [Example 15, N-[4-({[2-(methylamino)quinazolin-4-yl]amino}methyl)phenyl]biphenyl-4-carboxamide], the IC50 was > 5440 nM. Same read-out and setting: the result for `CNc1nc(NCc2ccc(NC(=O)c3ccc(Cl)cc3)cc2)c2cc(C)ccc2n1` [Example 18, 4-chloro-N-[4-({[6-methyl-2-(methylamino)quinazolin-4-yl]amino}methyl)phenyl]benzamide] reads > 5790 nM.

With `CNc1nc(NCc2ccc(NC(=O)c3ccc(C(F)(F)F)cc3)cc2)c2ccccc2n1` [Example 20, N-[4-({[2-(methylamino)quinazolin-4-yl]amino}methyl)phenyl]-4-(trifluoromethyl)benzamide], the IC50 is > 1380 nM.

Take `CNc1nc(NCc2ccc(NC(=O)c3ccc(C#N)cc3)cc2)c2ccccc2n1` [Example 21, 4-cyano-N-[4-({[2-(methylamino)quinazolin-4-yl]amino}methyl)phenyl]benzamide]: the IC50 is > 12200 nM. `CNc1nc(NCc2ccc(NC(=O)c3ccc(F)cc3)cc2)c2cc(C)ccc2n1` [Example 24, 4-fluoro-N-[4-({[6-methyl-2-(methylamino)quinazolin-4-yl]amino}methyl)phenyl]benzamide]: the IC50 is > 602 nM. Same read-out and setting: with `CN(C)c1nc(NCc2ccc(NC(=O)c3ccc(F)cc3)cc2)c2ccc(I)cc2n1` [Example 86, N-[4-({[2-(dimethylamino)-7-iodoquinazolin-4-yl]amino}methyl)phenyl]-4-fluorobenzamide] the figure was > 18500 nM; with `C=Cc1ccc2c(NCc3ccc(NC(=O)c4ccc(F)cc4)cc3)nc(N(C)C)nc2c1` [Example 87, N-[4-({[2-(dimethylamino)-7-vinylquinazolin-4-yl]amino}methyl)phenyl]-4-fluorobenzamide], > 20900 nM. Same read-out and setting: with `CCc1ccc2c(NCc3ccc(NC(=O)c4ccc(F)cc4)cc3)nc(N(C)C)nc2c1` [Example 88, N-[4-({[2-(dimethylamino)-7-ethylquinazolin-4-yl]amino}methyl)phenyl]-4-fluorobenzamide] the figure was > 2600 nM.

Take `CN(C)c1nc(NCc2ccc(NC(=O)c3ccc(F)cc3)cc2)c2ccc(C#N)cc2n1` [Example 89, N-[4-({[7-cyano-2-(dimethylamino)quinazolin-4-yl]amino}methyl)phenyl]-4-fluorobenzamide]: the IC50 was > 21000 nM. The same measure, in the same setting: with `CN(C)Cc1ccc2c(NCc3ccc(NC(=O)c4ccc(F)cc4)cc3)nc(N(C)C)nc2c1` [Example 91, N-{4-[({2-(dimethylamino)-7-[(dimethylamino)methyl]quinazolin-4-yl}amino)methyl]phenyl}-4-fluorobenzamide] the figure was > 9170 nM; with `CN(C)c1nc(NCc2ccc(NC(=O)c3ccc(F)cc3)cc2)c2ccc(C=O)cc2n1` [Example 92, N-[4-({[2-(dimethylamino)-7-formylquinazolin-4-yl]amino}methyl)phenyl]-4-fluorobenzamide], > 17900 nM.

On to `CN(C)c1nc(NCc2ccc(NC(=O)c3ccc(F)cc3)cc2)c2ccc(CO)cc2n1` [Example 93, N-[4-({[2-(dimethylamino)-7-(hydroxymethyl)quinazolin-4-yl]amino}methyl)phenyl]-4-fluorobenzamide], for which the IC50 was > 10400 nM. On the same count and under the same terms, the result for `CC(O)c1ccc2c(NCc3ccc(NC(=O)c4ccc(F)cc4)cc3)nc(N(C)C)nc2c1` (centres unmarked) [Example 95, N-[4-({[2-(dimethylamino)-7-(1-hydroxyethyl)quinazolin-4-yl]amino}methyl)phenyl]-4-fluorobenzamide] reads > 20200 nM; that for `CNc1nc(NCc2ccc(NC(=O)c3ccc(Cl)nc3)cc2)c2cccc(C)c2n1` [Example 183, 6-chloro-N-[4-({[8-methyl-2-(methylamino)quinazolin-4-yl]amino}methyl)phenyl]nicotinamide], > 2890 nM; that for `CNc1nc(NCc2ccc(NC(=O)c3ccc(F)cc3)cc2)c2cccc(C)c2n1` [Example 190, 4-fluoro-N-[4-({[8-methyl-2-(methylamino)quinazolin-4-yl]amino}methyl)phenyl]benzamide], > 3010 nM. On the same count and under the same terms, with `CNc1nc(NCc2ccc(NC(=O)c3ccc(Cl)cc3)cc2)c2cccc(C)c2n1` [Example 191, 4-chloro-N-[4-({[8-methyl-2-(methylamino)quinazolin-4-yl]amino}methyl)phenyl]benzamide] the figure was > 1450 nM.
